Test results from patent publication US20220288077A1, “PROSTATITIS TREATMENT” (NATIONAL INSTITUTE OF BIOLOGICAL SCIENCES, priority 2019, published 2022).

What was measured:
[1] = tested on: carrageenan-induced rat prostatitis model; experiment: Carrageenan-induced rat prostatitis model: prostate weight assessment (prostate index); assay type: in vivo; details: for prostate index (ratio of prostate gland wet weight/body weight): seven days after carrageenan, model group 2.15±0.30 mg/g
From the text: (§1) Adult male Sprague-Dawley rats (250-350 g body weight) were used for the experiments. All animals were acclimated for 1 week before any experimental procedures.
(§2) All the SD rats were randomly divided into different groups (n=8-10): control group, model group, and compounds-treated groups. For injection of carrageenan or saline, rats were anesthetized with 4% chloral hydrate and were fixed in a supine position. Then, the lower abdomen above the penis of rats was shaved and the skin in this area sterilized using 3 applications of 75% medical alcohol. A small midline incision was made in the sterile area, then the bladder and the prostate carefully exposed. With a 30-gauge needle, 50 ul sterile suspension of 3% carrageenan (Sigma, MO, USA) or saline (sham group) was injected into both right and left ventral lobes of the prostate gland. Different doses of RIPA-56 (12.5 mg/kg, 25 mg/kg, IP) or Finasteride (5 mg/kg, PO) were administrated to rats before (−17 min) and after (once every 12 h) carrageenan injection. While an equal amount of solvents were intraperitoneally and orally injected to control rats.
Seven days after carrageenan injection, rats were sacrificed and the prostates were harvested. Ventral and dorsolateral lobes of prostate glands were removed by cutting the ducts at the urethral connection and weighed immediately after removal. The prostate index (ratio of prostate gland wet weight/body weight) was calculated.

TNFα = experiment: Carrageenan-induced rat prostatitis model: TNFα in prostate homogenate (ELISA); assay type: in vivo; details: 25 mg/kg intraperitoneal B.I.D; per mg prostate homogenate protein; model 3.04±2.28, sham 0.52±0.26
From the text: as §1
as §2, with “Different doses of RIPA-56 (12.5 mg/kg, 25 mg/kg, IP) or Finasteride (5 mg/kg, PO) were administrated to rats before (−17 min) and after (once every 12 h) carrageenan injection. While an equal amount of solvents were intraperitoneally and orally injected to control rats.” left out
Part of rat prostate were weighed, mixed with cell lysis buffer (500 μl buffer per 100 mg tissue) and homogenized using FastPrep-24 homogenizer (MP Biomedicals). […] The supernatant was collected, and the total protein concentration was measured with the Bradford protein assay method. […] The level of cytokines was determined using rat TNFα, IL-1β and IL-6 ELISA kit (Biolegend or ProteinTech), and normalized to prostate protein concentration.

[2] = tested on: carrageenan-induced rat prostatitis model; experiment: Carrageenan-induced rat prostatitis model: histological analysis of prostate (H & E); assay type: in vivo; details: FIG. 1 C
From the text: as §1
as §2, with “While an equal amount of solvents were intraperitoneally and orally injected to control rats.” left out
For histological analysis, one part of the prostate was fixed in 10% neutral buffered formalin for 24 h, dehydrated in ethanol, cleared in xylene, and embedded in paraffin blocks. […] Each slide was evaluated randomly in 3 different areas by an independent investigator unaware of the animal grouping using a microscope.

aged mice = details: seminal vesicles, seminiferous tubules, sperm production, reproductive capacity; cited from earlier work
[3] = tested on: carrageenan-induced male rat prostate disease model; experiment: Carrageenan-induced male rat prostate disease model: representative RIP1, RIP3 and MLKL inhibitors; assay type: in vivo; details: list after the methods of the example; protocols based on RIPA-56
Description: Experimental protocols for the compounds of Table 1 were based on those used for RIPA-56. Each inhibitor was intraperitoneally or orally administrated to rat before carrageenan treatment, at the dose of 20 mg/kg to 100 mg/kg.
Each inhibitor was intraperitoneally or orally administrated to rat before carrageenan treatment, at the dose of 20 mg/kg to 100 mg/kg.
as §2, with “Then, the lower abdomen above the penis of rats was shaved and the skin in this area sterilized using 3 applications of 75% medical alcohol.” left out, “Different doses of RIPA-56 (12.5 mg/kg, 25 mg/kg, IP) or Finasteride (5 mg/kg, PO) were administrated to rats before (−17 min) and after (once every 12 h) carrageenan injection.” left out

rat EAP model = details: cited from earlier work

## CCC(C)(C)C(=O)N(O)Cc1ccccc1 [RIPA-56]
[1]; 12.5 mg/kg intraperitoneal B.I.D
  prostate index (ratio of prostate gland wet weight/body weight): 1.99 ± 0.41 mg/g
[1]; 25 mg/kg intraperitoneal B.I.D
  prostate index (ratio of prostate gland wet weight/body weight): 1.82 ± 0.22 mg/g
[1]; 12.5 and 25 mg/kg intraperitoneal B.I.D
  inhibition to the prostate enlargement and edema: dose-dependent inhibition
TNFα
  TNFα level in the prostate homogenate: 1.02 ± 0.37 pg/mg
[2]; RIPA-56 treated rats vs disease-model group
  inflammatory response in the prostate (histopathology): less severe than the disease-model group
[2]; RIPA-56 treated rats
  inflammatory cells in the interstitial space (histopathology): Only few inflammatory cells
Aged mice
  protection of aged mice from reproductive system aging: can protect aged mice from seminal vesicles enlargement

## Cn1c(=O)c2c(nc(S(C)(=O)=O)n2C)n(CC#N)c1=O [TC13-107, 2-(1,7-dimethyl-8-(methylsulfonyl)-2,6-dioxo-1H-purin-3(2H,6H,7H)-yl)acetonitrile]
[3]
  listed under heading Active MLKL Inhibitors: Active

## Cn1c(=O)c2c(nc(S(=O)(=O)CC3CC3)n2C)n(CC#Cc2cccc(Cl)c2)c1=O [TC13-119, 3-(3-(3-chlorophenyl)prop-2-yn-1-yl)-8-((cyclopropylmethyl)sulfonyl)-1,7-dimethyl-3,7-dihydro-1H-purine-2,6-dione]
[3]
  listed under heading Active MLKL Inhibitors: Active

## CNc1cc(C#CCn2c(=O)n(C)c(=O)c3c2nc(S(=O)(=O)Cc2cc(OC)ccc2OC)n3C)ccn1 [TC13-127, 8-((2,5-dimethoxybenzyl)sulfonyl)-1,7-dimethyl-3-(3-(2-(methylamino)pyridin-4-yl)prop-2-yn-1-yl)-3,7-dihydro-1H-purine-2,6-dione]
[3]
  listed under heading Active MLKL Inhibitors: Active

## Cn1c(=O)c2c(nc(S(C)(=O)=O)n2C)n(CC#Cc2cccc(O)c2)c1=O [TC13-172, 3-(3-(3-hydroxyphenyl)prop-2-yn-1-yl)-1,7-dimethyl-8-(methylsulfonyl)-3,7-dihydro-1H-purine-2,6-dione]
[3]
  listed under heading Active MLKL Inhibitors: Active

## CC(C)(C)NC(=O)[C@H]1CC[C@H]2[C@@H]3CC[C@H]4NC(=O)C=C[C@]4(C)[C@H]3CC[C@]12C [finasteride]
[1]; 5 mg/kg orally B.I.D
  decrease of the prostate index of carrageenan-treated rats: 23%

## CCOc1ccccc1OCCN[C@H](C)Cc1ccc(OC)c(S(N)(=O)=O)c1 [tamsulosin]
Rat EAP model
  anti-inflammatory efficacy: partial anti-inflammatory efficacy
